Legend:
[1] = target: T1, Methylated-DNA--protein-cysteine methyltransferase (Homo sapiens) (UniProt P16455); assay: In vitro inhibitory activity of compound against AGT (O6-alkylguanine-DNA alkyltransferase) at a concentration of 10 uM using breast cancer MCF cells, expressed as Fmol O6-MeG removed/mg of protein; assay type: cell-based
T1 sequence (whole entry): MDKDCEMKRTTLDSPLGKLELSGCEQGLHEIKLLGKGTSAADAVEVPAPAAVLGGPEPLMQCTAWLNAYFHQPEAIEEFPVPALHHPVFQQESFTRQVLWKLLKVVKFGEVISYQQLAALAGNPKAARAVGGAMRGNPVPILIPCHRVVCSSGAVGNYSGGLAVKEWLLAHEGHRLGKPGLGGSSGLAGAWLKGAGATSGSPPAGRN

[2] = target: T1, Methylated-DNA--protein-cysteine methyltransferase (Homo sapiens); assay: In vitro inhibitory activity of compound against AGT (O6-alkylguanine-DNA alkyltransferase) at a concentration of 1 uM using breast cancer MCF cells, expressed as Fmol O6-MeG removed/mg of protein; assay type: cell-based
[3] = target: T1, Methylated-DNA--protein-cysteine methyltransferase (Homo sapiens); assay: In vitro inhibitory activity of compound against AGT (O6-alkylguanine-DNA alkyltransferase) at a concentration of 50 uM using breast cancer MCF cells, expressed as Fmol O6-MeG removed/mg of protein; assay type: cell-based
[4] = target: T1, Methylated-DNA--protein-cysteine methyltransferase (Homo sapiens); assay: In vitro inhibitory activity of compound against AGT (O6-alkylguanine-DNA alkyltransferase) at a concentration of 0.1 uM using breast cancer MCF cells, expressed as Fmol O6-MeG removed/mg of protein; assay type: cell-based
[5] = target: T1, Methylated-DNA--protein-cysteine methyltransferase (Homo sapiens); details: MCF7; 50 uM
Description: In vitro inhibitory activity of compound against AGT (O6-alkylguanine-DNA alkyltransferase) at a concentration of 50 uM using breast cancer MCF-7 cells, expressed as Fmol O6-MeG removed/mg of protein

[6] = target: T1, Methylated-DNA--protein-cysteine methyltransferase (Homo sapiens); details: MCF7; 1 uM
Description: In vitro inhibitory activity of compound against AGT (O6-alkylguanine-DNA alkyltransferase) at a concentration of 1 uM using breast cancer MCF-7 cells, expressed as Fmol O6-MeG removed/mg of protein

[7] = target: T1, Methylated-DNA--protein-cysteine methyltransferase (Homo sapiens); details: MCF7; 10 uM
Description: In vitro inhibitory activity of compound against AGT (O6-alkylguanine-DNA alkyltransferase) at a concentration of 10 uM using breast cancer MCF-7 cells, expressed as Fmol O6-MeG removed/mg of protein

[8] = target: T1, Methylated-DNA--protein-cysteine methyltransferase (Homo sapiens); details: MCF7; 0.1 uM
Description: In vitro inhibitory activity of compound against AGT (O6-alkylguanine-DNA alkyltransferase) at a concentration of 0.1 uM using breast cancer MCF-7 cells, expressed as Fmol O6-MeG removed/mg of protein

Structure (SMILES) | Activity ((fM of O6-MeG removed) (mg of protein)-1) [1] | Activity ((fM of O6-MeG removed) (mg of protein)-1) [2] | Activity ((fM of O6-MeG removed) (mg of protein)-1) [3] | Activity ((fM of O6-MeG removed) (mg of protein)-1) [4] | Activity ((fM of O6-MeG removed) (mg of protein)-1) [5] | Activity ((fM of O6-MeG removed) (mg of protein)-1) [6] | Activity ((fM of O6-MeG removed) (mg of protein)-1) [7] | Activity ((fM of O6-MeG removed) (mg of protein)-1) [8]
COCc1ccccc1COc1[nH]c(N)nc2ncnc1-2 | 2490 | 2300 | 660 | 2340 |  |  |  | 
Nc1nc(OCc2ccccc2)c2nc[nH]c2n1 |  |  |  |  | 19 | 164 | 50 | 2390
COCc1ccc(COc2[nH]c(N)nc3ncnc2-3)cc1 | 35 | 292 | 58 | 457 |  |  |  | 
COCc1cccc(COc2[nH]c(N)nc3ncnc2-3)c1 | 21 | 1140 | 15 | 1640 |  |  |  | 

From ChEMBL document CHEMBL1136584, “Synthesis and preliminary biological evaluation of 6-O-[11C]-[(methoxymethyl)benzyl]guanines, new potential PET breast cancer imaging agents for the DNA repair protein AGT” (Bioorg Med Chem Lett, 2003)
